These results are taken from PubChem BioAssay (NCI).

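Exposure lasted 48 hours, with cells grown in 96-well plates and compounds tested at five concentrations. TGI marks complete inhibition of growth.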 Where a SMILES comes first, the peptide text is derived from it.

Test systems include HOP-62 NSCLC; 786-0 renal; SW-620 colon; RXF 393 renal; M14 melanoma; SNB-19 CNS; UACC-62 melanoma; UO-31 renal; OVCAR-3 ovarian; MDA-MB-231 breast; KM12 colon; NCI-H226 lung; DU-145 prostate; NCI-H522 lung; HT29 colon; MDA-N; TK-10 renal; HCT-116 colon; LOX IMVI melanoma.
Common to all, as to assay: DTP human tumour cell line panel, 48 h

Usually TGI stands for the concentration giving total growth inhibition. The low end stands for more potent growth arrest, the high end for less potent growth arrest. Take `COC(=O)c1ccc(COC(=O)N2C=CCC2C(=O)O)cc1` (stereo unspecified): the total growth inhibition concentration (TGI) with HOP-62 NSCLC, in the assay with 786-0 renal, in the assay with SW-620 colon, with RXF 393 renal, in the assay on M14 melanoma and in the assay with SNB-19 CNS was greater than 100 µM in each case. For the same molecule, the TGI in the assay with UACC-62 melanoma, with UO-31 renal, in the assay with OVCAR-3 ovarian, in the assay with MDA-MB-231 breast, in the assay with KM12 colon and in the assay with NCI-H226 lung was greater than 100 µM in each case. For the same molecule, the total growth inhibition concentration (TGI) in the assay on DU-145 prostate, in the assay on NCI-H522 lung, in the assay on HT29 colon, in the assay on MDA-N and with TK-10 renal was greater than 100 µM in each case.

Regarding `COc1ccccc1/C=C/c1c(N)ncnc1Nc1cccc(Cl)c1`, the TGI in the assay with HOP-62 NSCLC is 40 µM; with 786-0 renal, 26.6 µM; with SW-620 colon, greater than 100 µM; in the assay with RXF 393 renal, 38.4 µM; in the assay with M14 melanoma it was 51.8 µM; with SNB-19 CNS it was 47.1 µM. The TGI in the assay with UACC-62 melanoma was 33.3 µM; with UO-31 renal, 57.1 µM; in the assay on OVCAR-3 ovarian, 59.5 µM; in the assay with MDA-MB-231 breast, 42.5 µM; in the assay with KM12 colon, greater than 100 µM; with NCI-H226 lung, 49 µM. Moreover, the TGI with DU-145 prostate was greater than 100 µM; in the assay with NCI-H522 lung, 30.5 µM; in the assay on HCT-116 colon, 86.8 µM; with HT29 colon, 87.2 µM; with MDA-N, 55.8 µM; with TK-10 renal, 44.1 µM.

In the case of `CCC12CC(c3ccccc3)C(C(=O)N1)C(=O)N2` (stereo unspecified), the concentration for total growth inhibition (TGI) with HOP-62 NSCLC, in the assay with 786-0 renal, in the assay on SW-620 colon, in the assay with RXF 393 renal, with M14 melanoma and in the assay with SNB-19 CNS was greater than 100 µM in each case. The TGI in the assay on UACC-62 melanoma, in the assay on UO-31 renal, in the assay on OVCAR-3 ovarian, in the assay on MDA-MB-231 breast, in the assay with KM12 colon and in the assay with NCI-H226 lung was greater than 100 µM throughout. Moreover, the TGI in the assay with DU-145 prostate, in the assay with NCI-H522 lung, with HCT-116 colon, in the assay with HT29 colon and in the assay with MDA-N was greater than 100 µM in each case.

On to `Cc1sc(Nc2ccccc2[N+](=O)[O-])c(C#N)c1C`, for which the concentration for total growth inhibition (TGI) with HOP-62 NSCLC was 76.2 µM; in the assay with 786-0 renal, 61.7 µM; in the assay with RXF 393 renal, 57.1 µM; in the assay on M14 melanoma, greater than 100 µM; in the assay with SNB-19 CNS, 61.9 µM; in the assay on UACC-62 melanoma, greater than 100 µM. For the same molecule, the TGI was greater than 100 µM in the assay with UO-31 renal; 61.2 µM with OVCAR-3 ovarian; 65.8 µM in the assay with MDA-MB-231 breast; greater than 100 µM with KM12 colon; greater than 100 µM in the assay on NCI-H226 lung; greater than 100 µM in the assay with DU-145 prostate. Also, the figures for the TGI with NCI-H522 lung, in the assay on HCT-116 colon and with MDA-N were 20.9 µM, greater than 100 µM and greater than 100 µM, respectively.

Regarding `C/C(=N\Nc1nc2ccccc2s1)c1cnccn1`, the TGI is greater than 54.8 µM with HOP-62 NSCLC; greater than 100 µM with 786-0 renal; greater than 100 µM with SW-620 colon; 40.7 µM in the assay with RXF 393 renal; 12.3 µM in the assay with M14 melanoma; greater than 29.4 µM in the assay on SNB-19 CNS. The TGI with UACC-62 melanoma was greater than 60.6 µM; with UO-31 renal, 23.6 µM; in the assay on OVCAR-3 ovarian it was 17.4 µM; in the assay on MDA-MB-231 breast it was greater than 88.1 µM; in the assay on KM12 colon, 15.2 µM; with NCI-H226 lung it was 1.38 µM. For the same molecule, the TGI with DU-145 prostate is greater than 100 µM; with NCI-H522 lung, 2.92 µM; in the assay on HCT-116 colon, greater than 36.8 µM; in the assay with HT29 colon, 2.81 µM; in the assay on MDA-N, greater than 100 µM.

As for `Nc1ncnc2c1ncn2C1C=CC(COS(N)(=O)=O)C1` (stereo unspecified), the concentration for total growth inhibition (TGI) in the assay with HOP-62 NSCLC is greater than 100 µM; in the assay on LOX IMVI melanoma it was 37.6 µM; with 786-0 renal, greater than 100 µM; in the assay with SW-620 colon, greater than 100 µM; with RXF 393 renal it was greater than 100 µM; with M14 melanoma, greater than 100 µM. Besides, the total growth inhibition concentration (TGI) in the assay with SNB-19 CNS, with UACC-62 melanoma, with UO-31 renal, in the assay with OVCAR-3 ovarian, in the assay with MDA-MB-231 breast and in the assay with KM12 colon was greater than 100 µM each time. Besides, the TGI in the assay with NCI-H226 lung, in the assay on DU-145 prostate, in the assay on HCT-116 colon, with HT29 colon, in the assay with MDA-N and in the assay on TK-10 renal was greater than 100 µM throughout.

As to `CNC(=O)CNC(=O)C(NC(=O)CNC(=O)C1CCCN1C(=O)C(C)NC(=O)C(NC(C)=O)C(C)C)C(C)C` (stereo unspecified) (Ac-VAPGVG-NHMe; configuration not given here), the TGI in the assay with HOP-62 NSCLC, in the assay with LOX IMVI melanoma, with 786-0 renal, in the assay with SW-620 colon, in the assay with M14 melanoma and in the assay with SNB-19 CNS was greater than 100 µM in each case. The concentration for total growth inhibition (TGI) with UACC-62 melanoma, in the assay with UO-31 renal, in the assay on OVCAR-3 ovarian, in the assay on MDA-MB-231 breast, in the assay on DU-145 prostate and in the assay on NCI-H522 lung was greater than 100 µM in each case. Besides, the concentration for total growth inhibition (TGI) in the assay with HCT-116 colon, with HT29 colon, in the assay with MDA-N and in the assay with TK-10 renal was greater than 100 µM in each case.

On to `Cc1nc2c(O)cc3c4c(n(Cc5ccccc5)c3c2nc1C)C(=O)CCC4`, for which the TGI in the assay on HOP-62 NSCLC was 39.9 µM; with LOX IMVI melanoma it was greater than 100 µM; in the assay with 786-0 renal, 69.1 µM; in the assay with SW-620 colon it was greater than 100 µM; in the assay on RXF 393 renal, 32.2 µM; with M14 melanoma, greater than 100 µM. The TGI is greater than 100 µM in the assay on SNB-19 CNS; greater than 100 µM with UACC-62 melanoma; greater than 100 µM in the assay with UO-31 renal; 83.2 µM in the assay on OVCAR-3 ovarian; greater than 100 µM with MDA-MB-231 breast; greater than 100 µM with KM12 colon. Also, the TGI with NCI-H226 lung, with DU-145 prostate, in the assay on HCT-116 colon, in the assay on HT29 colon, in the assay with MDA-N and in the assay with TK-10 renal was greater than 100 µM throughout.
